# Results as given in article PMC10247784, “Physiological activation of human and mouse bitter taste receptors by bile acids” (Communications Biology, 2023).
# Biological target: T1, human TAS2R14 (Homo sapiens, UniProt Q9NYV8)
# T1 construct: expressed in transfected cells; host or cells: HEK293T-Gα16gust44
# T1 sequence (Q9NYV8 1-317): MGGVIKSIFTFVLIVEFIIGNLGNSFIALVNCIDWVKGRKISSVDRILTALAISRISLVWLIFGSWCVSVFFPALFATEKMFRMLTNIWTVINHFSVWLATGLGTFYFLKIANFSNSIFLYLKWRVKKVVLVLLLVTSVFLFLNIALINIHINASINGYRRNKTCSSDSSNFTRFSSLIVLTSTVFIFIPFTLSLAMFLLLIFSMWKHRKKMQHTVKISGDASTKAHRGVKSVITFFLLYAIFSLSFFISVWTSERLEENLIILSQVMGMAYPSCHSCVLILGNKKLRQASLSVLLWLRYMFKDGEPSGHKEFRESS
# Test: Calcium imaging assay (FLIPR), HEK293T-Gα16gust44 cells transfected with human TAS2R14
# Format: cell-based
# Details: for RLU: TAS2R14 trace
# Description: This set of bile acids was chosen because of their commercial availability in high purities, their diversity within the class of bile acids and their previous detection and quantitation in human blood. Stock solutions were prepared in DMSO.
# As basal growth medium for the HEK293T-Gα16gust44 cell line[17],[59] served Dulbecco’s modified eagle medium (DMEM) (Thermo Fisher Scientific, Darmstadt, Germany) supplemented with 10 % fetal bovine serum (Sigma-Aldrich, Steinheim, Germany), 2 mM L-glutamine (Sigma-Aldrich, Steinheim, Germany), 100 units/ml penicillin (Sigma Aldrich, Steinheim, Germany) and 100 µg/ml streptomycin (Sigma Aldrich, Steinheim, Germany). Growth conditions were 37 °C, 5 % CO2 and saturated air-humidity[60].
# HEK293T-Gα16gust44 cells were seeded on poly-D-lysine (10 µg/ml) coated 96-well plates to reach a confluence of 40-60 % the next day. For transient transfection 150 ng of plasmid DNA containing the receptor of interest and 0.3 µl lipofectamine 2000 (Thermo Fisher Scientific, Darmstadt, Germany) per well were used and transfection took place according to the manual of lipofectamine 2000. […] The empty vector DNA (mock) was transfected as negative control[14],[41].
# Cells were loaded using the calcium-sensitive fluorescent dye Fluo-4-AM (Abcam, Cambridge, Great Britain) in the presence of 2.5 mM probenecid (Sigma-Aldrich, Steinheim, Germany) the day after transfection[13],[41]. 1 h after loading, cells were washed with C1 buffer using a BioTek Cell Washer, incubated in the dark for half an hour and washed again. For automated agonist application and measurement of fluorescence changes, a FLIPR^TETRA device (Molecular Devices, San José, United States) was used. Viability of cells was tested by application of 100 nM Somatostatin 14 (Bachem, Bubendorf, Switzerland)[42].
# Measured data were negative control corrected by subtracting the signal of the mock-transfected cells and exported to Microsoft Excel using the FLIPR software ScreenWorks 4.2. In Microsoft Excel software, standardization of maximum fluorescence intensities to the basal fluorescence and normalization to the buffer-only control was done to calculate the relative fluorescence changes (ΔF/F).
# Initial screening experiments performed in duplicate wells were confirmed by at least one replication and representative traces were selected for display. All dose-response relationships were determined by three independent experiments (biological replicates) performed in duplicates (technical replicates). Threshold concentrations, defined as lowest substance concentrations leading to statistically significant elevated fluorescence changes in receptor-transfected cells compared with empty vector-transfected cells, were determined using SigmaPlot with Student’s t-test to evaluate statistical significance (p < 0.01).
smiles,measurement,setting,value
"C[C@H](CCC(=O)NCCS(=O)(=O)O)[C@H]1CC[C@H]2[C@@H]3[C@H](O)C[C@@H]4C[C@H](O)CC[C@]4(C)[C@H]3C[C@H](O)[C@]12C [Taurocholic Acid, taurocholic acid]",RLU,Time (s) 88.797 (Chenodeoxycholic Acid 88.781),801.791 RLU
same,RLU,Time (s) 90.797 (Chenodeoxycholic Acid 90.781),813.667 RLU
same,RLU,Time (s) 92.797 (Chenodeoxycholic Acid 92.781),823.99 RLU
same,RLU,Time (s) 94.797 (Chenodeoxycholic Acid 94.781),849.724 RLU
same,RLU,Time (s) 96.797 (Chenodeoxycholic Acid 96.781),840.46 RLU
same,RLU,Time (s) 98.797 (Chenodeoxycholic Acid 98.781),832.423 RLU
same,RLU,Time (s) 100.797 (Chenodeoxycholic Acid 100.781),870.888 RLU
same,RLU,Time (s) 102.797 (Chenodeoxycholic Acid 102.781),887.784 RLU
same,RLU,Time (s) 104.797 (Chenodeoxycholic Acid 104.781),895.487 RLU
same,RLU,Time (s) 106.797 (Chenodeoxycholic Acid 106.781),886.141 RLU
same,RLU,Time (s) 108.797 (Chenodeoxycholic Acid 108.781),931.883 RLU
same,RLU,Time (s) 110.797 (Chenodeoxycholic Acid 110.781),935.64 RLU
same,RLU,Time (s) 112.797 (Chenodeoxycholic Acid 112.781),971.794 RLU
same,RLU,Time (s) 114.797 (Chenodeoxycholic Acid 114.781),962.409 RLU
same,RLU,Time (s) 116.797 (Chenodeoxycholic Acid 116.781),993.706 RLU
same,RLU,Time (s) 118.797 (Chenodeoxycholic Acid 118.781),1000.54 RLU
same,RLU,Time (s) 120.797 (Chenodeoxycholic Acid 120.781),1025.82 RLU
same,RLU,Time (s) 122.797 (Chenodeoxycholic Acid 122.781),1039.5 RLU
same,RLU,Time (s) 124.797 (Chenodeoxycholic Acid 124.781),1041.39 RLU
same,RLU,Time (s) 126.797 (Chenodeoxycholic Acid 126.781),1050.25 RLU
same,RLU,Time (s) 128.797 (Chenodeoxycholic Acid 128.781),1043.78 RLU
same,RLU,Time (s) 130.797 (Chenodeoxycholic Acid 130.781),1042.75 RLU
same,RLU,Time (s) 132.797 (Chenodeoxycholic Acid 132.781),1039.88 RLU
same,RLU,Time (s) 134.797 (Chenodeoxycholic Acid 134.781),1050.77 RLU
same,RLU,Time (s) 136.797 (Chenodeoxycholic Acid 136.781),1036.12 RLU
same,RLU,"Time (s) 137.562 (Taurocholic Acid 137.563, Chenodeoxycholic Acid 137.546)",1048.18 RLU
same,RLU,"Time (s) 143.578 (Taurocholic Acid 143.563, Chenodeoxycholic Acid 143.546)",1008.4 RLU
same,RLU,"Time (s) 149.578 (Taurocholic Acid 149.563, Chenodeoxycholic Acid 149.546)",998.739 RLU
same,RLU,"Time (s) 155.578 (Taurocholic Acid 155.563, Chenodeoxycholic Acid 155.546)",977.028 RLU
same,RLU,"Time (s) 161.578 (Taurocholic Acid 161.563, Chenodeoxycholic Acid 161.546)",958.674 RLU
same,RLU,"Time (s) 167.578 (Taurocholic Acid 167.563, Chenodeoxycholic Acid 167.546)",918.668 RLU
same,RLU,"Time (s) 173.578 (Taurocholic Acid 173.563, Chenodeoxycholic Acid 173.546)",888.356 RLU
same,RLU,"Time (s) 179.578 (Taurocholic Acid 179.563, Chenodeoxycholic Acid 179.546)",847.479 RLU
same,RLU,"Time (s) 191.578 (Taurocholic Acid 191.563, Chenodeoxycholic Acid 191.546)",745.479 RLU
same,RLU,"Time (s) 197.578 (Taurocholic Acid 197.563, Chenodeoxycholic Acid 197.546)",696.127 RLU
same,RLU,"Time (s) 209.578 (Taurocholic Acid 209.563, Chenodeoxycholic Acid 209.546)",643.487 RLU
same,RLU,"Time (s) 221.578 (Taurocholic Acid 221.563, Chenodeoxycholic Acid 221.546)",526.781 RLU
same,RLU,"Time (s) 233.578 (Taurocholic Acid 233.563, Chenodeoxycholic Acid 233.546)",416.225 RLU
same,RLU,"Time (s) 239.578 (Taurocholic Acid 239.563, Chenodeoxycholic Acid 239.546)",342.018 RLU
same,RLU,"Time (s) 245.578 (Taurocholic Acid 245.563, Chenodeoxycholic Acid 245.546)",303.535 RLU
same,RLU,"Time (s) 293.578 (Taurocholic Acid 293.563, Chenodeoxycholic Acid 293.546)",127.213 RLU
same,RLU,"Time (s) 299.578 (Taurocholic Acid 299.563, Chenodeoxycholic Acid 299.546)",108.412 RLU
same,RLU,"Time (s) 305.578 (Taurocholic Acid 305.563, Chenodeoxycholic Acid 305.546)",98.929 RLU
same,RLU,"Time (s) 311.578 (Taurocholic Acid 311.563, Chenodeoxycholic Acid 311.546)",88.6159 RLU
same,RLU,"Time (s) 317.578 (Taurocholic Acid 317.563, Chenodeoxycholic Acid 317.546)",79.3923 RLU
same,RLU,"Time (s) 323.578 (Taurocholic Acid 323.563, Chenodeoxycholic Acid 323.546)",80.4704 RLU
same,RLU,"Time (s) 329.578 (Taurocholic Acid 329.563, Chenodeoxycholic Acid 329.546)",68.4196 RLU
same,RLU,"Time (s) 335.578 (Taurocholic Acid 335.563, Chenodeoxycholic Acid 335.546)",88.4103 RLU
same,RLU,"Time (s) 341.578 (Taurocholic Acid 341.563, Chenodeoxycholic Acid 341.546)",53.5929 RLU
same,RLU,"Time (s) 347.578 (Taurocholic Acid 347.563, Chenodeoxycholic Acid 347.546)",48.7046 RLU
same,RLU,"Time (s) 353.578 (Taurocholic Acid 353.563, Chenodeoxycholic Acid 353.546)",68.797 RLU
same,RLU,"Time (s) 359.578 (Taurocholic Acid 359.563, Chenodeoxycholic Acid 359.546)",47.7517 RLU
same,Activation threshold concentration TAS2R14,lowest concentration with significantly increased fluorescence vs empty vector (p < 0.01),300 µM
